The values below come from PMC11201660 (Biomolecules, 2024).

The target of one data set is human BChE (Homo sapiens, UniProt P06276). Briefly: biochemical. It is filed as biochemical.
Data set [1] is described as follows: MTS cytotoxicity assay, 24-h exposure of liver cell line. The note with it: human, HepG2 cells, IC50 HepG2 (cytotoxicity), tested 3 to 400 μM.
The target of the next data set is T1, human AChE (Homo sapiens, UniProt P22303).
T1 construct: gift from Dr. Zoran Radić, Skaggs School of Pharmacy and Pharmaceutical Sciences, UCSD
T1 sequence (P22303 32-614): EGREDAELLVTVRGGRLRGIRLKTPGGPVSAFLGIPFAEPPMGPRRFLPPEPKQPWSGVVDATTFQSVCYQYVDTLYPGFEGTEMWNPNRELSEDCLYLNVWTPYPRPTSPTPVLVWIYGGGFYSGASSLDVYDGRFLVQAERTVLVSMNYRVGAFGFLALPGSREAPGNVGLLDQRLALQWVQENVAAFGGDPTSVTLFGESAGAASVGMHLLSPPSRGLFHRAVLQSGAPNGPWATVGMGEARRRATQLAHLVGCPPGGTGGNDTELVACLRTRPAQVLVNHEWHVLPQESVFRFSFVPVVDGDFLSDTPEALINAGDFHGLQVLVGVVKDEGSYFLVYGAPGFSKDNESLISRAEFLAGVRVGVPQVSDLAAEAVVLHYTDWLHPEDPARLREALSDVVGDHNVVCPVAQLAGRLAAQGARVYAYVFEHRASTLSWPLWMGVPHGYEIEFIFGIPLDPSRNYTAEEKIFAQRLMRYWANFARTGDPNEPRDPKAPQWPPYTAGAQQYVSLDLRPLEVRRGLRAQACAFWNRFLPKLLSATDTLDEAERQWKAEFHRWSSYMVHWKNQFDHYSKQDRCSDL
The experiment in a line: biochemical. The data set is classed as biochemical.

Another data set has as its system HepG2. Briefly: MTS cytotoxicity assay, 24-h exposure of liver cell line. Particulars: read-out: IC50 HepG2 (cytotoxicity), tested 3 to 400 μM. Background: Tetrazolium dyes change colour on reduction, which living cells bring about.

Structures are written as SMILES.

human BChE, sequence (P06276 29-602): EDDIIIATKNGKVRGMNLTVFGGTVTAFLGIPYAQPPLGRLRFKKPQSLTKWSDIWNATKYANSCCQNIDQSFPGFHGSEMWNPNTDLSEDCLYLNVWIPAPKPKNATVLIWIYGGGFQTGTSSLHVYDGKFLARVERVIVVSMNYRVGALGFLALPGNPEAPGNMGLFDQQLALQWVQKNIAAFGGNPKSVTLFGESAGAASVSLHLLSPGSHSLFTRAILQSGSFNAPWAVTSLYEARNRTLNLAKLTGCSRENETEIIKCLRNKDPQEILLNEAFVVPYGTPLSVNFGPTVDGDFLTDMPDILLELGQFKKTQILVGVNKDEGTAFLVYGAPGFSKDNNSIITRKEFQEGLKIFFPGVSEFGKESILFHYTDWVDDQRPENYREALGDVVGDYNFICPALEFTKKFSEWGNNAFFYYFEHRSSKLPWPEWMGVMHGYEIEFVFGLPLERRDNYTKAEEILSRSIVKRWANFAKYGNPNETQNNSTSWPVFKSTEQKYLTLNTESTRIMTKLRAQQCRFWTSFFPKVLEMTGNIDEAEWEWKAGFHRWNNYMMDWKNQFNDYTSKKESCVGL

Turning to `Cc1ccc(/C=C\c2ccsc2/C=N\O)cc1` [cis,anti-18, (Z)-3-((Z)-4-methylstyryl)thiophene-2-carbaldehyde oxime], the affinity on human BChE, expressed as Ki, was 760 ± 122 µM. For the same compound, in data set [1], the IC50 (as a rule, the concentration at which inhibition is half-maximal) at 24 h was greater than 400 µM.

Take `N#Cc1ccc(/C=C\c2ccsc2/C=N\O)cc1` [cis,anti-21, 4-((Z)-2-(2-((Z)-(hydroxyimino)methyl)thiophen-3-yl)vinyl)benzonitrile]: the Ki (usually the dissociation constant of the complex between target and ligand, obtained from inhibition or displacement) at human BChE was determined as 53 ± 10 µM; at human AChE it was 187 ± 54 µM. In data set [1], this compound showed a half-maximal inhibitory concentration (IC50) at 24 h of 182 ± 13 µM.

Turning to `N#Cc1ccccc1/C=C\c1ccc(/C=N/O)s1` [cis,syn-5, 2-((Z)-2-(5-((E)-(hydroxyimino)methyl)thiophen-2-yl)vinyl)benzonitrile], the values for the inhibitory constant (Ki) at human BChE and at human AChE were 17 ± 2 µM and 112 ± 21 µM, respectively. The same compound came in with an IC50 at 24 h in data set [1] of no less than 400 µM.

Turning to `O/N=C/c1ccc(/C=C\c2ccc(Cl)cc2)o1` [cis,syn-12, (E)-5-((Z)-4-chlorostyryl)furan-2-carbaldehyde oxime], the inhibitory constant (Ki) on human BChE was determined as 147 ± 37 µM; on human AChE, 68 ± 37 µM. This compound returned an IC50 at 24 h in data set [1] of 226 ± 10 µM.

Take `Cc1ccc(/C=C\c2ccoc2/C=N/O)cc1` [cis,syn-14, (E)-3-((Z)-4-methylstyryl)furan-2-carbaldehyde oxime]: the figures for the Ki at human BChE and on human AChE were 93 ± 30 µM and 627 ± 245 µM, respectively. This compound also displayed a half-maximal inhibitory concentration (IC50) at 24 h in data set [1] of 182 ± 32 µM.

In the case of `O/N=C/c1occc1/C=C\c1ccc(Cl)cc1` [cis,syn-16, (E)-3-((Z)-4-chlorostyryl)furan-2-carbaldehyde oxime], affinity at human BChE was put at a Ki of 119 ± 44 µM. For the same compound, in the data set with HepG2, the IC50 was 65 ± 13 µM. In addition, the IC50 at 24 h in data set [1] was no more than 100 µM.

As for `N#Cc1ccc(/C=C\c2ccoc2/C=N/O)cc1` [cis,syn-17, 4-((Z)-2-(2-((E)-(hydroxyimino)methyl)furan-3-yl)vinyl)benzonitrile], the half-maximal inhibitory concentration (IC50) with HepG2 was found to be 120 ± 6 µM. Moreover, the half-maximal inhibitory concentration (IC50) at 24 h in data set [1] was no more than 100 µM. This compound returned a Ki on human AChE of 544 ± 105 µM.

Take `Cc1ccc(/C=C\c2ccsc2/C=N/O)cc1` [cis,syn-18, (E)-3-((Z)-4-methylstyryl)thiophene-2-carbaldehyde oxime]: at human BChE, the inhibitory constant (Ki) was 86 ± 32 µM. In addition, in data set [1], the 50% inhibitory concentration (IC50) at 24 h is 269 ± 38 µM.

Turning to `COc1ccc(/C=C\c2csc(/C=N/O)c2)cc1` [cis,syn-19′, (E)-4-((Z)-4-methoxystyryl)thiophene-2-carbaldehyde oxime], the “inhibition of human BChE (in words)” value against human BChE is given as “poor inhibitors”. The compound further yielded a half-inhibitory concentration (IC50) at 24 h in data set [1] greater than 400 µM. The “inhibition of human AChE (in words)” value against human AChE was “poor inhibitors”.

As for `N#Cc1ccc(/C=C\c2ccsc2/C=N/O)cc1` [cis,syn-21, 4-((Z)-2-(2-((E)-(hydroxyimino)methyl)thiophen-3-yl)vinyl)benzonitrile], the Ki on human BChE worked out at 59 ± 8 µM; at human AChE, 171 ± 68 µM. Moreover, the IC50 in the data set with HepG2 is 118 ± 46 µM. Besides, the IC50 at 24 h in data set [1] is no more than 100 µM.

For the compound `ON=Cc1cn(Cc2ccc(F)cc2)nn1` [compound 1, 1-(4-fluorobenzyl)-1H-1,2,3-triazole-4-carbaldehyde oxime], the inhibitory constant (Ki) worked out at 503 ± 32 µM on human BChE and 271 ± 29 µM at human AChE. In addition, the half-maximal inhibitory concentration (IC50) at 24 h in data set [1] is greater than 400 µM.

Consider `ON=Cc1cn(Cc2ccc(Cl)cc2)nn1` [compound 2, 1-(4-chlorobenzyl)-1H-1,2,3-triazole-4-carbaldehyde oxime], for which, at human BChE, the Ki is 24 ± 2.9 µM and the “inhibition selectivity (AChE vs BChE)” value is recorded as “selective BChE inhibitors”. This compound also gave an IC50 at 24 h in data set [1] greater than 400 µM. At human AChE, this compound yielded an inhibition constant Ki of 267 ± 92 µM.

Consider `O=[N+]([O-])c1ccc(-n2cc(C=NO)nn2)cc1` [compound 3, 1-(4-nitrophenyl)-1H-1,2,3-triazole-4-carbaldehyde oxime], for which the inhibition constant (Ki) at human BChE turned out to be 303 ± 66 µM; on human AChE, 280 ± 30 µM. In data set [1], this compound displayed an IC50 at 24 h greater than 400 µM.

Take `O/N=C\c1ccc(/C=C/c2ccccc2O)s1` [trans,anti-4, (Z)-5-((E)-2-hydroxystyryl)thiophene-2-carbaldehyde oxime]: the Ki at human BChE stood at 6.5 ± 0.5 µM; at human AChE it was 258 ± 90 µM. Further, in data set [1], the IC50 at 24 h turned out to be 191 ± 21 µM.

Consider `O/N=C\c1ccc(/C=C/c2ccco2)o1` [trans,anti-6, (Z)-5-((E)-2-(furan-2-yl)vinyl)furan-2-carbaldehyde oxime], for which the Ki on human BChE was 123 ± 23 µM. Moreover, in data set [1], the IC50 at 24 h was no less than 400 µM.

The compound `Cc1ccc(/C=C/c2ccc(/C=N\O)o2)cc1` [trans,anti-10, (Z)-5-((E)-4-methylstyryl)furan-2-carbaldehyde oxime] came in with an IC50 at 24 h in data set [1] greater than 400 µM. This compound also had an inhibition constant Ki at human AChE of 180 ± 40 µM.

`COc1ccc(/C=C/c2ccoc2/C=N\O)cc1` [trans,anti-15, (Z)-3-((E)-4-methoxystyryl)furan-2-carbaldehyde oxime]: at human BChE, the “inhibition of human BChE (in words)” value is reported as “poor inhibitors”. In data set [1], this compound yielded a concentration for half-maximal inhibition (IC50) at 24 h greater than 400 µM. Also, on human AChE, the “inhibition of human AChE (in words)” value was “poor inhibitors”.

For `Cc1ccccc1/C=C/c1oc2ccc3ccccc3c2c1/C=N/O` [trans,syn-9, (E)-2-((E)-2-methylstyryl)naphtho[2,1-b]furan-1-carbaldehyde oxime], the results for the Ki at human BChE and on human AChE were 303 ± 65 µM and 172 ± 29 µM, respectively. The compound also came in with an IC50 at 24 h in data set [1] greater than 400 µM.

Regarding `Cc1ccc(/C=C/c2ccc(/C=N/O)o2)cc1` [trans,syn-10, (E)-5-((E)-4-methylstyryl)furan-2-carbaldehyde oxime], the results for the inhibition constant (Ki) at human BChE and on human AChE were 38 ± 9.8 µM and 111 ± 45 µM, respectively. In addition, the IC50 with HepG2 worked out at 105 ± 4 µM. Also, the IC50 at 24 h in data set [1] is no more than 100 µM.

On to `Cc1ccc(/C=C/c2ccoc2/C=N/O)cc1` [trans,syn-14, (E)-3-((E)-4-methylstyryl)furan-2-carbaldehyde oxime], for which the affinity on human BChE corresponds to a Ki of 122 ± 47 µM. In addition, the 50% inhibitory concentration (IC50) at 24 h in data set [1] was greater than 400 µM.

Compound `O/N=C/c1occc1/C=C/c1ccc(Cl)cc1` [trans,syn-16, (E)-3-((E)-4-chlorostyryl)furan-2-carbaldehyde oxime] displayed a half-inhibitory concentration (IC50) at 24 h in data set [1] greater than 400 µM. This compound also registered a Ki at human AChE of 217 ± 160 µM.

As for `N#Cc1ccc(/C=C/c2ccoc2/C=N/O)cc1` [trans,syn-17, 4-((E)-2-(2-((E)-(hydroxyimino)methyl)furan-3-yl)vinyl)benzonitrile], the “inhibition selectivity (AChE vs BChE)” value against human BChE is “selective AChE inhibitors”. The compound also yielded an IC50 at 24 h in data set [1] greater than 400 µM. At human AChE, this compound showed an inhibition constant (Ki) of 66 ± 24 µM.

On to `Cc1ccc(/C=C/c2ccsc2/C=N/O)cc1` [trans,syn-18, (E)-3-((E)-4-methylstyryl)thiophene-2-carbaldehyde oxime], for which the “inhibition selectivity (AChE vs BChE)” value against human BChE is “selective AChE inhibitors”. In data set [1], this compound yielded an IC50 at 24 h greater than 400 µM. On human AChE, this compound returned a Ki of 59 ± 39 µM.

Regarding `CCCn1cc(C=Cc2ccc(C=NO)s2)nn1` [trans-7], the inhibition constant (Ki) was found to be 49 ± 11 µM at human BChE and 147 ± 43 µM on human AChE. Besides, in data set [1], the concentration for half-maximal inhibition (IC50) at 24 h was greater than 400 µM.

For `O=[N+]([O-])c1ccc(-n2cc(C=Cc3ccc(C=NO)s3)nn2)cc1` [trans-8, 5-(2-(1-(4-nitrophenyl)-1H-1,2,3-triazol-4-yl)vinyl)thiophene-2-carbaldehyde oxime], the inhibition constant (Ki) at human BChE turned out to be 143 ± 22 µM; on human AChE, 199 ± 38 µM. The compound further had a concentration for half-maximal inhibition (IC50) at 24 h in data set [1] greater than 400 µM.
